Test results taken from US20250381196A1 (SHANGHAI YAO YUAN BIOTECHNOLOGY CO., LTD., priority 2022, published 2025).
Counter-ions that a name gives are not always drawn.

Columns and labels:
[1] = system: ALPK1-dependent NFκB reporter gene activation in HEK293 cells stably expressing an NF-kB reporter (G9 cells); experiment: NFκB gene reporter alkaline phosphatase assay; assay type: cell-based; conditions: Homo sapiens, read-out: NFKB assay IC50
Procedure: NFκB Gene Reporter Alkaline Phosphatase Assay
An alkaline phosphatase reporter assay system was used to measure inhibition of ALPK1-dependent NFκB reporter gene activation. Briefly, HEK293 cells stably expressing an NF-kB reporter (referred to herein as “G9 cells”) were maintained in Dulbecco's Modified Eagle Medium (DMEM) supplemented with 10% fetal bovine serum (FBS, Hyclone™) containing antibiotics (pen/strep, G418) […]. For the assay, cells were seeded into 96-well plates at a density of 10,000 cells/well in Freestyle™ 293 Expression Medium (ThermoFisher) and allowed to attach overnight. […] NFkB gene activation was detected using the chromogenic substrate, para-nitrophenyl phosphate (pNPP) according to the manufacturer's protocols (pNPP Phosphatase Assay, Beyotime Biotechnology).

[2] = biological target: ALPK1 (Homo sapiens (Human), UniProt Q96QP1); experiment: ALPK1 in vitro kinase assay (HTRF of TIFA phosphorylation); assay type: biochemical; conditions: ALPK1 2 nM activated by ADP-Heptose, TIFA substrate
Chain of ALPK1 (Q96QP1 whole entry): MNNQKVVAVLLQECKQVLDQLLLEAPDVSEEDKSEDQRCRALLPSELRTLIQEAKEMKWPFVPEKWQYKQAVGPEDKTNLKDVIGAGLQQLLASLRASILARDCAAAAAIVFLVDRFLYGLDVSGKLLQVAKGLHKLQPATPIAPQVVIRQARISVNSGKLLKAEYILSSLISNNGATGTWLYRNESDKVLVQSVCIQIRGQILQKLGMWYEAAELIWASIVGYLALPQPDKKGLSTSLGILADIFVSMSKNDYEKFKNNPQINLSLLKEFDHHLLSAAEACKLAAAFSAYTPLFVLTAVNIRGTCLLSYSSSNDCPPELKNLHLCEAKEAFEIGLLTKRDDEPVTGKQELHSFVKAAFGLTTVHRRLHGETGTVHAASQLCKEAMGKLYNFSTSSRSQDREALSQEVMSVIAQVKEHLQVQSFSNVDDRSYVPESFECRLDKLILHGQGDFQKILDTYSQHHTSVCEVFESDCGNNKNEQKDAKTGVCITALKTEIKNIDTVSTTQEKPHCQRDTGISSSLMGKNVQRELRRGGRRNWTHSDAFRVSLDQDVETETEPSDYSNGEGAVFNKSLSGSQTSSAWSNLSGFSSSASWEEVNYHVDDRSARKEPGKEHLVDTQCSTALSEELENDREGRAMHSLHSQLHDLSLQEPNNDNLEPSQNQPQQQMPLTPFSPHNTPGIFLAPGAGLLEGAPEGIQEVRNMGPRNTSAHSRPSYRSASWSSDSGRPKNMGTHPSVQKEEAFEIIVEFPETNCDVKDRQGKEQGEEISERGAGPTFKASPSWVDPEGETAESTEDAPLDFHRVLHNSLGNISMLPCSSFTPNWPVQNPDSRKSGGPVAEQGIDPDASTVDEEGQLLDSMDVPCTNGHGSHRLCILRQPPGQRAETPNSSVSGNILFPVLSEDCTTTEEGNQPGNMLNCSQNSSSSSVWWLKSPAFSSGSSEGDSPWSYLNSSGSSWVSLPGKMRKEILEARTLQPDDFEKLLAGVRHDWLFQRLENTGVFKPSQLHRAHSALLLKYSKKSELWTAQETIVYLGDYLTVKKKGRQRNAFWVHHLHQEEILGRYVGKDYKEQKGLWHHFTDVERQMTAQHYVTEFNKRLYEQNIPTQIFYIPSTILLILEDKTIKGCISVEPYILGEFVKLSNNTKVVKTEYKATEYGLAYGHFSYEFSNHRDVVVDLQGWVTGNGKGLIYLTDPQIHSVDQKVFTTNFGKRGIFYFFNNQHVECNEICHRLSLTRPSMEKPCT
Procedure: ALPK1 in vitro Kinase Assay
ALPK1 kinase activity was measured in an in vitro assay using ADP-Heptose as the ALPK1 ligand and activator of its kinase activity and TIFA protein as the ALPK1 phosphorylation substrate. Since phosphorylated TIFA proteins oligomerize, Homogeneous Time-Resolved Fluorescence (HTRF) was used to measure protein: protein interaction between HA-tagged TIFA proteins as an indicator of TIFA phosphorylation.
In brief, dose-response studies were performed in 384-well assay plates. Each well contained 0.1 mg TIFA, ALPK1 (2 nM final concentration in reaction mixture) and kinase buffer (100 mM of HEPES pH 7.4, 4 mM DTT, 40 mM MgCl2, 20 mM of β-Glycerol phosphate disodium salt, 0.4 mM of Na3VO4, 0.16 mg/mL). Titrations of the test compounds were prepared in dimethylsulphoxide (DMSO). The reaction was initiated by addition of ATP and ADP-Heptose.
For HTRF, samples were incubated with a Tb cryptate-labeled anti-HA antibody for capturing HA-tagged proteins according to the manufacturer's instructions (PerkinElmer™, CisBio™) and the fluorescence signal was quantified (Tecan Infinite F NANO+). HTRF signals were calculated as the HTRF ratio (ratio of fluorescence measured at 665 nm and 620 nm)×104 (thereby using the signal at 620 nm as an internal standard).
IC50 values were determined using 3- or 4-parameter logistic equation using GraphPad Prism version 6.00. The reference compound, A027, was used as a positive control for each plate.

[3] = system: adenine diet induced rat CKD model
Source text: We started compound dosing from day 14 after adenine diet inception for 6 weeks. During the study, we collected plasma and measure the Blood Urea Nitrogen (BUN) (FIG. 6A) and creatine (FIG. 6B) level weekly.

[4] = system: ALPK1-dependent gene expression in kidney; experiment: Inhibition of ALPK1 in kidney: ALPK1 agonist-induced gene expression in rats; assay type: in vivo, Sprague-Dawley (SD) rats; conditions: SD rats, oral 2, 5, 10, 20 mpk 21 h before ip ALPK1 agonist, kidneys 3 h after agonist; relative to vehicle group
[5] = system: UUO induced kidney fibrosis; conditions: rat UUO
Source text: Briefly, we ligated the left ureter of rat and then start the daily oral treatment right after the surgery for 7 days, and then measure the kidney fibrosis by hydroxyproline content measurement and Sirus red staining. Because of the amount of renal inflammation, we used hydroxyproline (OH-P) content indexed to total protein for interpretation of UUO-induced fibrosis and compound efficacy (FIG. 3A) For completeness, we also analyzed the OH-P content indexed to tissue mass (FIG. 3B).

[6] = system: lupus nephritis in MRL/MpJ-Faslpr/J mice; experiment: MRL/MpJ-Faslpr/J mouse lupus nephritis model; assay type: in vivo
Source text: After 8 weeks of treatment, the animals were sacrificed, and their urine was collected for proteinuria assessment using Urine Protein Test Strips (FIG. 9). The right kidneys were harvested and stained by hematoxylin and eosin (H&E) for pathological evaluation (FIG. 10A-G).

[7] = daily oral treatment for 7 days, C008 at 7 mpk & 20 mpk
[8] = 10 mg/kg oral daily, 8 weeks, kidney H&E

## COc1ccc(C(C)(C)c2csc(NC(=O)NCc3cc(F)c(N4CCNCC4)cc3F)n2)cc1 [Example A231, 1-(2,5-difluoro-4-(piperazin-1-yl)benzyl)-3-(4-(2-(4-methoxyphenyl)propan-2-yl)thiazol-2-yl)urea hydrochloride]
[1]
  IC50: 3360 nM

## COc1ccc(C(C)(C)c2csc(NC(=O)N3CC(c4ccc(N5CCNCC5)cc4)C3)n2)cc1 [Example A233, N-(4-(2-(4-methoxyphenyl)propan-2-yl)thiazol-2-yl)-3-(4-(piperazin-1-yl)phenyl)azetidine-1-carboxamide]
[1]
  IC50: 330 nM

## COc1ccc(C(C)(C)c2csc(NC(=O)c3ccc(N4CCNCC4C)cc3)n2)cc1 (centres unmarked) [Example B014]
[2]
  IC50: 300 nM

## COc1ccc(C(C)(C)c2csc(NC(=O)NCc3cc(F)c(C4CCNCC4)c(F)c3)n2)cc1 [Example A151, 1-(3,5-difluoro-4-(piperidin-4-yl)benzyl)-3-(4-(2-(4-methoxyphenyl)propan-2-yl)thiazol-2-yl)urea hydrochloride]
[1]
  IC50: 950 nM

## C#C[C@](C)(c1ccc(Cl)cc1)c1csc(NC(=O)c2c(F)cc(N3CCN(C)CC3)cc2F)n1 (stereo in doubt) [Example C009, N-(4-(2-(4-chlorophenyl)but-3-yn-2-yl)thiazol-2-yl)-2,6-difluoro-4-(4-methylpiperazin-1-yl)benzamide]
[2]
  IC50: 7 nM

## COc1ccc(C(C)(C)c2csc(NC(=O)c3ccc(N4CCC(O)C4)cc3)n2)cc1 (centres unmarked) [Example B009, 4-(3-hydroxypyrrolidin-1-yl)-N-(4-(2-(4-methoxyphenyl)propan-2-yl)thiazol-2-yl)benzamide]
[2]
  IC50: 95 nM

## C#C[C@@](C)(c1ccc(Cl)cc1)c1csc(NC(=O)c2c(F)cc(N3CCNCC3)cc2F)n1 [Example C008, (S)-N-(4-(2-(4-chlorophenyl)but-3-yn-2-yl)thiazol-2-yl)-2,6-difluoro-4-(piperazin-1-yl)benzamide]
[3]; rat adenine diet, end of study, C008 at 7 and 20 mpk
  adenine-induced increases in renal cortical CVF: attenuated
[3]; rat adenine diet, ALK5i: days 35-56, C008: days 35 (20 mpk), 49 & 56 (7&20 mpk)
  adenine-induced increases in plasma creatinine: attenuated
[3]; rat adenine diet, ALK5i: days 35-56, C008: days 42 (20 mpk), 49 (7&20 mpk), 56 (20 mpk)
  adenine-induced increases in plasma BUN: attenuated
[3]; rat, C008 7, 20 mg/kg, dosing from day 14 for 6 weeks
  adenine diet induced kidney dysfunction and kidney fibrosis: significantly inhibit
[4]
  mRNA expression for CCL-2, CCL-7, CXCL-1, CXCL-10, IL-1β and IL-6 in kidney: significant decreases
[5]; C008 2, 7, 20 mg/kg
  UUO induced kidney fibrosis: dose dependently suppress
[5]; [7]
  UUO-induced increases in renal cortical CVF (Collagen Volume Fraction, Sirus Red): attenuated
  UUO-induced increases in renal cortical OH-P (hydroxyproline): attenuated
[5]; separate study, C008 5, 10, 20 mg/kg
  kidney expression of genes involved in fibrosis and inflammation: inhibited
[6]; 10 mg/kg oral daily, 8 weeks, compared to vehicle disease group
  proteinuria scores: significant reduction
[6]; [8]
  pathological score: crescent: significantly lower
  pathological score: glomerulus diameter: significantly lower
  pathological score: interstitial inflammation: significantly lower
  pathological score: protein cast: significantly lower
[6]; left kidneys, qPCR, after 8 weeks, relative to vehicle group
  mRNA expression of Ccl2, Ccl4, Ccl5, Ccr1 and IL-6 in kidney: significant decreases

## C#C[C@@](C)(c1ccc(F)cc1)c1csc(NC(=O)c2ccc(N3CCNCC3CO)cc2)n1 (stereo in doubt) [Example B070, N-[4-[1-(4-fluorophenyl)-1-methyl-prop-2-ynyl]thiazol-2-yl]-4-[2-(hydroxymethyl)piperazin-1-yl]benzamide]
[2]
  IC50: 169 nM

## C#C[C@](C)(c1ccc(Cl)cc1)c1nc(NC(=O)c2c(F)cc(N3CCNCC3)cc2F)sc1Cl (stereo in doubt) [Example C050, N-(5-chloro-4-(2-(4-chlorophenyl)but-3-yn-2-yl)thiazol-2-yl)-2,6-difluoro-4-(piperazin-1-yl)benzamide]
[2]
  IC50: 923 nM
